Measured values reported in patent US20080058211A1, “Method and Composition for the Modulation of Toxin Resistance in Plant Cells” (BOARD OF REGENTS, THE UNIVERSITY OF TEXAS SYSTEM, priority 2006, published 2008).

What was measured:
[1] = test system: root hairs of Arabidopsis thaliana; settings: cited from earlier work
[2] = test system: root hairs; settings: cited from earlier work
[3] = test system: [Ca^2+]cyt; settings: dextran-conjugated calcium green as reporter; cited from earlier work
[4] = test system: [Ca^2+]cyt in excised roots; settings: cited from earlier work
[5] = test system: ATMEKK1, ATMPK3, ATPK19, ERF2, ERF3, ERF4 and ACS6 genes; settings: application of 500 μM; cited from earlier work
[6] = test system: Arabidopsis leaves; settings: applied into intercellular spaces of leaves; cited from earlier work
[7] = test system: LOX2, ACS6, PAL1; settings: cited from earlier work
[8] = test system: roots; settings: in vivo; cited from earlier work
[9] = test system: maize roots; settings: concentrations that inhibited gravitropic growth; cited from earlier work
[10] = test system: Arabidopsis roots; settings: concentrations that inhibited gravitropic growth; cited from earlier work
[11] = test system: Arabidopsis pollen; settings: cited from earlier work
[12] = test system: Arabidopsis pollen; test: in vitro pollen germination (Arabidopsis); assay type: cell-based, Arabidopsis thaliana
Method: Effects of Extracellular ATPγS and AMPαS on Pollen Germination. Arabidopsis pollen was germinated in pollen germination media (PGM) containing from about zero to about 400 μM ATPγS or AMPαS. […] The method of collection included vortexing flowers in PGM creating a homogenous suspension of pollen from tens to hundreds of flowers. This method caused the release of a small amount of ATP, 2-5 μM into the PGM (data not shown).
The nitric oxide signaling pathway mediates the inhibition of Arabidopsis pollen germination by ATPγS. To examine the downstream effectors involved in the inhibition of Arabidopsis pollen germination by ATPγS, different agonists and antagonists of the known nitric oxide signaling pathway were examined. […] Some of the nitric oxide signaling pathway agonists are water soluble while others are DMSO soluble.
Strains and Growth Conditions. For the experiments related to the nitric oxide-ATP signaling relationship, all Arabidopsis thaliana plants were ecotype Wassilewskija (WS), and Medicago truncatula plants were strain A17. All of the plants were grown in Metro-Mix 200 soil at 24° C. with constant light. In vitro Pollen Germination. Arabidopsis flowers in stage 12-14 (Smyth et al., 1990) or Medicago truncatula flowers in stage F3 (Firnhaber et al., 2005) were collected and vortexed for 1 min in pollen germination media (PGM) (0.01% boric acid, 1 mM MgSO4, 1 mM CaCl2, 1 mM Ca(NO3)2, 5 mM HEPES, 18% Sucrose pH 7.0). The supernatant containing the pollen was collected by pipet, and up to three rounds of vortexing of the same pollen could be pooled together. The pollen suspended in PGM was then added in 10-12 μL drops to 400 μL PGM+1% agar that had been spread as a thin film across a microscope slide. The slides and pollen were then placed into humidity chambers, petri dishes with water saturated kimwipes, and allowed to germinate at 26° C. overnight. Pictures of the germinated pollen were taken with a digital camera attached to a brightfield microscope at 40×. The digital images were scored for the percent of pollen germinated using the AlphaEase software from Alpha Innotech. Pollen with tubes that were shorter than the diameter of the pollen grain were not counted as germinated or non-germinated. The chemicals: ATPγS, AMPαS, N2, 2-O-dibutyrylguanosine 3′:5′-cyclic monophospohate (Dib cGMP), Sildenafil citrate (Viagra™, Pfizer), and 2-(N,N-Diethylamino)-diazenolate 2-oxide (NONOate) were added to the pollen/PGM suspension prior to adding the drops to the PGM+1% agar. The chemicals 1H-[1,2,4]Oxadiazolo[4,3,-a]quinoxalin-1-one (ODQ), N-[4-[1-(3-Aminopropyl)-2-hydroxy-2-nitrosohydrazino]butyl]-1,3-propanediamine (SNAP), and 3-isobutyl-1-methylxanthine (IBMX) were diluted in DMSO and added to the pollen/PGM suspension to a final concentration of DMSO of 0.1%.
For successful pollen germination it was critical for the plants to be healthy and growing in slightly dry soil. To achieve this, the plants were briefly watered 1-2 days before the experiment. As Johnson-Brousseau and McCormick note in their paper (Johnson-Brousseau and McCormick 2004), a solid base is necessary for best in vitro germination of Arabidopsis pollen. The pollen would not germinate in liquid PGM if not overlaid on a solid PGM+1% agar base, and the vortexing and deposition of the pollen/PGM suspension needed to take place in less than 30 minutes or germination rates dropped considerably.

[13] = test system: Medicago truncatula pollen; test: in vitro pollen germination (Medicago); assay type: cell-based
Method: To determine if the affects of ATPγS on pollen germination was specific to Arabidopsis or a more generalized phenomenon, Medicago truncatula was also examined.
Strains and Growth Conditions. For the experiments related to the nitric oxide-ATP signaling relationship, all Arabidopsis thaliana plants were ecotype Wassilewskija (WS), and Medicago truncatula plants were strain A17. All of the plants were grown in Metro-Mix 200 soil at 24° C. with constant light. In vitro Pollen Germination. Arabidopsis flowers in stage 12-14 (Smyth et al., 1990) or Medicago truncatula flowers in stage F3 (Firnhaber et al., 2005) were collected and vortexed for 1 min in pollen germination media (PGM) (0.01% boric acid, 1 mM MgSO4, 1 mM CaCl2, 1 mM Ca(NO3)2, 5 mM HEPES, 18% Sucrose pH 7.0). The supernatant containing the pollen was collected by pipet, and up to three rounds of vortexing of the same pollen could be pooled together. The pollen suspended in PGM was then added in 10-12 μL drops to 400 μL PGM+1% agar that had been spread as a thin film across a microscope slide. […] The digital images were scored for the percent of pollen germinated using the AlphaEase software from Alpha Innotech. Pollen with tubes that were shorter than the diameter of the pollen grain were not counted as germinated or non-germinated. […]

[14] = test system: Arabidopsis pollen tubes; test: pollen tube elongation; assay type: cell-based, Arabidopsis thaliana; settings: about 0 to about 250 μM added after tubes had begun to grow
Method: Arabidopsis pollen tube elongation is inhibited by ATPγS. As vesicles fuse to deliver membranes to the tip of elongating pollen tubes, ATP is likely to be released. So ATPγS and AMPαS were investigated for their ability to affect pollen tube elongation. After pollen tubes had begun to grow, from about 0 to about 250 μM ATPγS or AMPαS were added and the subsequent growth rate was determined.
Blocking the nitric oxide signaling pathway reverses the inhibition of Arabidopsis elongation by ATPγS. The inhibition of Arabidopsis pollen tube elongation was also mediated via the NO signaling pathway. Pollen tube growth rates were measured in 0.5% DMSO with and without 100 μM ATPγS.
Measurements of pollen tube elongation. Pollen was germinated as described above except 10 μL drops of pollen/PGM suspension were added to 60 μL of PGM+1% agar that had been deposited into a concavity slide. The pollen was allowed to germinate for 1-2 h, so that pollen tubes were clearly visible. Then 90 μL of PGM or PGM containing ATPγS, AMPαS, DMSO or ODQ was added and a photo was taken using a brightfield microscope at 40×. The coordinates of each photo were noted, so that the exact pollen tubes could be photographed 50-60 minutes later. Using Image J, the pollen tube lengths for individual pollen tubes were measured and a growth rate of μm/min was determined.

[15] = test system: nitric oxide levels in elongating Arabidopsis pollen tubes; test: nitric oxide in elongating pollen tubes, DAF-2D fluorescence; assay type: cell-based, Arabidopsis thaliana; settings: 125 μM
Method: Increased extracellular ATPγS increases nitric oxide production in elongating pollen tubes. In addition to using agonists and antagonists to indirectly study the relationship of eATPγS and nitric oxide, direct measurements of increases in nitric oxide after application of ATPγS and AMPαS were examined. Pollen grains have a high level of auto-fluorescence and the nitric oxide levels in elongating Arabidopsis pollen tubes were determined using DAF-2D, a fluorescent marker for the presence of nitric oxide that was dissolved in DMSO. Elongating pollen tubes were treated with DAF-2D alone or with ATPγS or AMPαS.
Measurements of NO in growing pollen tubes treated with ATPγS or AMPαS. Pollen was germinated as described for the pollen elongation measurements. After 1-2 hours when pollen tubes were clearly visible, 90 μL of PGM containing 5 μM 4,5-diaminofluorescein diacetate (DAF-2D, Molecular Probes) with or without ATPγS or AMPαS was added. […] Using Image J, the average fluorescence for the pollen tubes on each slide and each time point were determined. Since background fluorescence for each slide varied, three areas where no pollen tubes were present were averaged and subtracted from the pollen tube averages for each slide. Pollen tubes with and without nucleotides were compared to each other at similar time points to determine if there was a difference in fluorescence.

[16] = test system: [Ca^2+]cyt in Arabidopsis seedlings; settings: Arabidopsis seedlings (Jeter et al., 2004); cited from earlier work
[17] = test system: Δ[Ca^2+]cyt; settings: co-application with OGA; cited from earlier work

For `Nc1ncnc2c1ncn2[C@@H]1O[C@H](COP(=O)(O)OP(=O)(O)OP(=O)(O)O)[C@@H](O)[C@H]1O` [ATP], the “induction of membrane depolarization” value ([1]; applied nucleotide or phosphate) is given as “induced large depolarizations”, the EC50 ([1]; dose-response studies, read-out: half-maximal depolarization) is given as ~400 µM and the “increase in root hair growth” value [2] is given as “not”. The “change in [Ca2+]cyt” value [3] was “no change”, the “increase in [Ca2+]cyt” value ([4]; 300 nM ATP, excised roots, 10 mM CaCl2, in less than about 10 seconds) was 2 fold and the “[Ca2+]cyt after treatment” value ([4]; 1 μM ATP, from ca. 100 nM) was “over 400 nM”. For the same molecule, the “abundance of mRNAs (MAP kinases, ERF2, ERF3, ERF4, ACS6)” value [5] was “induced an increased abundance”, the “concentration sufficient to induce significant superoxide production” value [6] was 500 nM and the “message abundance for PAL1” value [7] was “increased”. The “expression of LOX2 and ACS6” value ([7]; micromolar concentrations that induced superoxide production) was “up-regulated”, the “concentration that could inhibit the straight growth of roots” value [8] was 3 mM and the auxin transport [9] was “inhibited auxin transport”. The auxin transport [10] was “inhibited auxin transport” and the “concentration shown to affect pollen germination” value ([11]; Steinenbrunner et al., 2003) was 1 to 2 mM.

With `Nc1ncnc2c1ncn2[C@@H]1O[C@H](COP(=O)(O)OP(=O)(O)OP(O)(O)=S)[C@@H](O)[C@H]1O` [ATPγS] the “inhibition of pollen germination” value ([12]; 50 μM, 0.1% DMSO) was “inhibits”, the “inhibition of pollen germination” value ([12]; 50 μM, series with water-soluble agonists) was “not inhibitory” and the “inhibition of pollen germination” value ([12]; 100 μM, 0.1% DMSO) was “does not inhibit”. For the same molecule, the “inhibition of pollen germination” value ([12]; 100 μM, series with water-soluble agonists) was “inhibitory”, the “concentration from which the pollen germination rate significantly decreased” value ([12]; PGM with about zero to about 400 μM) was “about 100 μM” and the “concentrations required for the responses of pollen” value ([12]; pollen germination and growth) was 100 to 200 µM. For the same molecule, the “concentration from which pollen germination rates decrease” value [13] was 200 µM, the “concentration that significantly inhibited pollen tube elongation” value [14] was “more than 150 μM” and the DAF-2D fluorescence [15] was “significantly increased”. For the same molecule, the “concentrations needed to induce increases in [Ca2+]cyt” value [16] was 100 to 200 µM, the “effect on Δ[Ca2+]cyt together with OGA” value [17] was “mutually enhanced” and the “concentration that could inhibit the straight growth of roots” value [8] was 0.3 mM. The pollen germination ([11]; wild-type pollen, μM levels) was “inhibits pollen germination”.
